Source: PubChem BioAssay AID194 (DTP/NCI, 2004)
Where “and” joins values, the source holds several entries; their conditions need not be identical. Identical values can stand only once. Results filed as inconclusive are left out. How the source made its calls: active means survival T/C of 150% or more; inactive means T/C below 125% in these data.

System: BDF1 mice, B16 melanoma s.c., survival/tumor T/C
Test: NCI In Vivo Anticancer Drug Screen. Data for tumor model B16 Melanoma (subcutaneous) in B6D2F1 (BDF1) mice
Conditions: endpoint: median survival time, schedule: Q01DX009 (ip), higher = longer survival
Description: The antitumor activity of compounds was measured in mice bearing transplantable tumors. Survival or tumor size were measured and the results are expressed as the measurement made in the treated group (T) divided by the measurement made in the vehicle treated control group (C). The tumor model used in this assay is B16 Melanoma (subcutaneous) in B6D2F1 (BDF1) mice

[1] = dose: 1.0 mg/kg/injection, vehicle: saline

Measured: T/C

CO[C@H](C(=O)[C@@H](O)[C@@H](C)O)[C@@H]1Cc2cc3cc(OC4CC(OC5CC(O)C(O)C(C)O5)C(O)C(C)O4)c(C)c(O)c3c(O)c2C(=O)[C@H]1OC1CC(OC2CC(OC3CC(C)(O)C(O)C(C)O3)C(O)C(C)O2)C(O)C(C)O1 (some centres undefined)
inactive: dose: 0.12 mg/kg/injection, vehicle: saline 100 % of control | dose: 0.25 mg/kg/injection, vehicle: saline 114 % of control | dose: 0.5 mg/kg/injection, vehicle: saline 116 % of control | [1] 118 % of control | dose: 3.8 micrograms/kg/injection, vehicle: water 104 % of control | dose: 7.5 micrograms/kg/injection, vehicle: water 107 % of control | dose: 15.0 micrograms/kg/injection, vehicle: water 101 % of control | dose: 30.0 micrograms/kg/injection, vehicle: water 114 % of control | dose: 60.0 micrograms/kg/injection, vehicle: water 93 % of control | dose: 120.0 micrograms/kg/injection, vehicle: water 91 % of control | dose: 250.0 micrograms/kg/injection, vehicle: water 86 % of control

Nc1nc([Se])c2ncn(C3OC(CO)C(O)C3O)c2n1 (centres undefined)
inactive: [1] 108 % of control | dose: 2.0 mg/kg/injection, vehicle: saline 98 % of control and 121 % of control | dose: 4.0 mg/kg/injection, vehicle: saline 121 % of control | dose: 8.0 mg/kg/injection, vehicle: saline 108 % of control | dose: 16.0 mg/kg/injection, vehicle: saline 111 % of control

CN(N=O)C(N)=O
inactive: dose: 3.12 mg/kg/injection, vehicle: saline 97 % of control | dose: 6.25 mg/kg/injection, vehicle: saline 105 % of control | dose: 12.5 mg/kg/injection, vehicle: saline 109 % of control

COc1cc2c(c(OC)c1OC)-c1cc3c(cc1[C@@H](OC(C)=O)[C@@H]1COC(=O)[C@H]1C2)OCO3
inactive: dose: 0.62 mg/kg/injection, vehicle: Klucel (hydroxypropylcellulose) (HPC) 100 % of control | dose: 1.25 mg/kg/injection, vehicle: Klucel (hydroxypropylcellulose) (HPC) 88 % of control and 89 % of control | dose: 2.5 mg/kg/injection, vehicle: Klucel (hydroxypropylcellulose) (HPC) 97 % of control | dose: 5.0 mg/kg/injection, vehicle: Klucel (hydroxypropylcellulose) (HPC) 105 % of control and 116 % of control | dose: 10.0 mg/kg/injection, vehicle: Klucel (hydroxypropylcellulose) (HPC) 109 % of control

C=C(C)C12OC3(c4ccccc4)OC1C1C4OC4(CO)C(O)C4(O)C(=O)C(C)=CC4C1(O3)C(C)C2OC(=O)/C=C/C=C/c1ccccc1 (centres undefined)
inactive: dose: 6.3 micrograms/kg/injection, vehicle: saline with Tween-80 115 % of control | dose: 12.5 micrograms/kg/injection, vehicle: saline with Tween-80 99 % of control | dose: 25.0 micrograms/kg/injection, vehicle: saline with Tween-80 115 % of control | dose: 50.0 micrograms/kg/injection, vehicle: saline with Tween-80 103 % of control | dose: 100.0 micrograms/kg/injection, vehicle: saline with Tween-80 98 % of control

COC(=O)C[C@](O)(CCCC(C)(C)O)C(=O)O[C@@H]1C(OC)=C[C@]23CCCN2CCc2cc4c(cc2[C@H]13)OCO4
inactive: dose: 0.25 mg/kg/injection, vehicle: acid diluted with saline 118 % of control | dose: 0.5 mg/kg/injection, vehicle: acid diluted with saline 100 % of control | dose: 0.7 mg/kg/injection, vehicle: acid diluted with saline 101 % of control | dose: 1.0 mg/kg/injection, vehicle: acid diluted with saline 103 % of control | dose: 1.5 mg/kg/injection, vehicle: acid diluted with saline 101 % of control
